This is an account of results in paper PMC3516570, “The GM2 Glycan Serves as a Functional Coreceptor for Serotype 1 Reovirus” (PLoS Pathogens, 2012).

The target of data set [1] is T1, T1L σ1long (Mammalian orthoreovirus 1 Lang, UniProt P04506).
T1 construct: gene S1; residues 261-470, three C-terminal beta-spirals plus head; E. coli; trimeric GCN4 zipper and His6-tag removed by trypsin (kept for glycan array); trimer
Description: X-ray crystal structure ([…] Å); also STD NMR. The class given is binding. Particulars: crystal soak with 20 mM glycan; same site as GM2 glycan; STD NMR pH 7.4, 283 K.

Data set [2] concerns the molecule itself. Put plainly: crystal structure; crystals of cleaved σ1_(long) grown in 0.1 M Na cacodylate (pH 6.0–6.6), 1.2–1.5 M (NH4)2SO4 at 4°C, soaked with 20 mM GM2 or GM3 oligosaccharide; space group P3_(2)21; 3.6 Å (GM2) and 3.5 Å (GM3).

For `CC(=O)N[C@H]1[C@H]([C@H](O)[C@H](O)CO)O[C@@](O[C@H]2[C@@H](O)[C@@H](CO)O[C@@H](O[C@H]3[C@H](O)[C@@H](O)C(O)O[C@@H]3CO)[C@@H]2O)(C(=O)O)C[C@@H]1O` (some centres unmarked) [GM3 glycan], the “X-ray crystal structure (3.5 Å); also STD NMR” value in data set [1] is on record as 4GU4 (T1L σ1-GM3 glycan complex).

B1: reovirus type 1 Lang (T1L) σ1, construct σ1_(long) (amino acids 261–470), GCN4 domain and His6-tag removed (domain or fragment)
chain: LESAKIDSVLPPLTVREASGVRTLSFGYDTSDFTIINSVLSLRSRLTLPTYRYPLELDTANNRVQVADRFGMRTGTWTGQLQYQHPQLSWRANVTLNLMKVDDWLVLSFSQMTTNSIMADGKFVINFVSGLSSGWQTGDTEPSSTIDPLSTTFAAVQFLNNGQRIDAFRIMGVSEWTDGELEIKNYGGTYTGHTQVYWAPWTIMYPCNVR
notes: Made as His6-GCN4(trimeric)-σ1(261–470) in pQE-80L; Crystals were soaked with GM2 or GM3 glycan; also called cleaved σ1_(long); σ1 attachment protein; not shown: His6, N-terminal, cleaved; GCN4 trimeric leucine zipper, N-terminal, cleaved
For B1, the “stoichiometry N” value in data set [2] stood at 3.

What is called stoichiometry N is a count of units in the complex or per binding partner.
